Measured values as given in ChEMBL document CHEMBL1201862, “PubChem BioAssay data set” (2004).
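All cell lines were grown in 96-well plates and treated with compound for 48 hours. Here, GI50 denotes the concentration required for 50% inhibition of growth.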 Active and inactive are the calls of the source. Cut-off read from the data, not from the text of the source: active = GI50 up to about 1.1 µM and inactive = higher.

Experiments:
Assay in all cases: DTP human tumour cell line panel, 48 h
[1] = test system: 786-0
[2] = test system: A498
[3] = test system: EKVX
[4] = test system: HOP-92
[5] = test system: HT-29
[6] = test system: OVCAR-8
[7] = test system: RPMI-8226
[8] = test system: RXF 393
[9] = test system: SK-OV-3
[10] = test system: U-251
[11] = test system: UACC-257
[12] = test system: XF498
[13] = test system: HCT-15
[14] = test system: NCI-H226
[15] = test system: BT-549
[16] = test system: DU-145
[17] = test system: Hs-578T
[18] = test system: MCF7
[19] = test system: MDA-N
[20] = test system: NCI/ADR-RES

Structure (SMILES) | GI50 [1] | GI50 [2] | GI50 [3] | GI50 [4] | GI50 [5] | GI50 [6] | GI50 [7] | GI50 [8] | GI50 [9] | GI50 [10] | GI50 [11] | GI50 [12] | GI50 [13] [µM] | GI50 [14] | GI50 [15] | GI50 [16] | GI50 [17] | GI50 [18] | GI50 [19] | GI50 [20]
O=C1/C(=C/c2ccccc2Cl)COc2ccccc21 | 15.2 µM (inactive) | 16.6 µM (inactive) | 16 µM (inactive) | 15.1 µM (inactive) | 19 µM (inactive) | 17.2 µM (inactive) | 3.53 µM (inactive) | 15.5 µM (inactive) | 32.6 µM (inactive) | 13.7 µM (inactive) | 15.1 µM (inactive) | 15.6 µM (inactive) | – | – | – | – | – | – | – | –
O=C(CCc1nnc(S)[nH]1)NC12CC3CC(CC(C3)C1)C2 | > 100 µM (inactive) | > 100 µM (inactive) | > 100 µM (inactive) | > 100 µM (inactive) | > 100 µM (inactive) | > 100 µM (inactive) | – | > 100 µM (inactive) | > 100 µM (inactive) | > 100 µM (inactive) | > 100 µM (inactive) | > 100 µM (inactive) | > 100 | > 100 µM (inactive) | – | – | – | – | – | –
Cc1nn2c(nc1=O)sc1ccc3ccccc3c12 | > 100 µM (inactive) | – | > 100 µM (inactive) | > 100 µM (inactive) | > 100 µM (inactive) | > 100 µM (inactive) | – | > 100 µM (inactive) | > 100 µM (inactive) | > 100 µM (inactive) | > 100 µM (inactive) | > 100 µM (inactive) | > 100 | > 100 µM (inactive) | – | – | – | – | – | –
CCOC(=O)/C(C#N)=C1\N[C@H](C(=O)OCC)CO1 | > 100 µM (inactive) | – | > 100 µM (inactive) | – | > 100 µM (inactive) | > 100 µM (inactive) | > 100 µM (inactive) | > 100 µM (inactive) | – | > 100 µM (inactive) | > 100 µM (inactive) | 31.9 µM (inactive) | > 100 | > 100 µM (inactive) | – | – | – | – | – | –
O=C(Cc1ccc2ccccc2c1)NCc1ccc(C(=O)NCCc2ccccc2)cc1 | > 100 µM (inactive) | > 100 µM (inactive) | > 100 µM (inactive) | > 100 µM (inactive) | 94.4 µM (inactive) | > 100 µM (inactive) | > 100 µM (inactive) | > 100 µM (inactive) | > 100 µM (inactive) | > 100 µM (inactive) | > 100 µM (inactive) | – | > 100 | > 100 µM (inactive) | > 100 µM (inactive) | > 100 µM (inactive) | > 100 µM (inactive) | > 100 µM (inactive) | > 100 µM (inactive) | > 100 µM (inactive)
CCCCSC1=N/C(=C\c2ccccc2O)C(=O)N1 | 69.7 µM (inactive) | 28.2 µM (inactive) | 35.7 µM (inactive) | 44 µM (inactive) | 70.6 µM (inactive) | > 100 µM (inactive) | 75.5 µM (inactive) | 50.5 µM (inactive) | > 100 µM (inactive) | 43.8 µM (inactive) | 31.2 µM (inactive) | – | 96.6 | > 100 µM (inactive) | 49.4 µM (inactive) | > 100 µM (inactive) | > 100 µM (inactive) | 33.5 µM (inactive) | 76 µM (inactive) | 66.7 µM (inactive)
O=c1[nH]c(=O)n(C2OC(CO)C(O)C2O)c2nc(-c3ccc(-c4ccccc4)cc3)cnc12 (configuration not stated) | > 100 µM (inactive) | > 100 µM (inactive) | > 100 µM (inactive) | > 100 µM (inactive) | > 100 µM (inactive) | > 100 µM (inactive) | > 100 µM (inactive) | > 100 µM (inactive) | > 100 µM (inactive) | > 100 µM (inactive) | > 100 µM (inactive) | – | > 100 | > 100 µM (inactive) | > 100 µM (inactive) | > 100 µM (inactive) | > 100 µM (inactive) | > 100 µM (inactive) | > 100 µM (inactive) | > 100 µM (inactive)
COC(=O)C(=O)C(C#N)c1ccc(CC#N)cc1 (configuration not stated) | > 100 µM (inactive) | – | > 100 µM (inactive) | > 100 µM (inactive) | > 100 µM (inactive) | – | > 100 µM (inactive) | – | > 100 µM (inactive) | > 100 µM (inactive) | > 100 µM (inactive) | > 100 µM (inactive) | > 100 | > 100 µM (inactive) | – | – | – | – | – | –
C=C1C(=O)CC2C(=O)C(C)(O)CC/C=C(\C)C(=O)CC12 (configuration not stated) | 16.1 µM (inactive) | > 86.9 µM (inactive) | 21.5 µM (inactive) | 23.6 µM (inactive) | 17 µM (inactive) | 20.1 µM (inactive) | 15 µM (inactive) | 14.4 µM (inactive) | > 100 µM (inactive) | > 49.5 µM (inactive) | 20 µM (inactive) | – | 13.6 | 6.07 µM (inactive) | 15.8 µM (inactive) | 18.2 µM (inactive) | 2.96 µM (inactive) | 11.2 µM (inactive) | 17.3 µM (inactive) | 38.5 µM (inactive)
CCN(CC)c1ccc(C(=C2C=CC(=[N+](CC)CC)C=C2)c2ccccc2)cc1 | 0.0352 µM (active) | – | 0.108 µM (active) | 0.0338 µM (active) | < 0.01 µM (active) | – | < 0.01 µM (active) | 0.022 µM (active) | 0.0304 µM (active) | 0.0234 µM (active) | 0.0472 µM (active) | 0.0149 µM (active) | 0.0483 | 0.023 µM (active) | – | – | – | – | – | –
O=c1oc2ccccc2cc1-c1nc2ccc([N+](=O)[O-])cc2o1 | > 100 µM (inactive) | > 100 µM (inactive) | > 100 µM (inactive) | > 100 µM (inactive) | 67.6 µM (inactive) | > 100 µM (inactive) | > 100 µM (inactive) | > 100 µM (inactive) | > 100 µM (inactive) | > 100 µM (inactive) | > 100 µM (inactive) | – | > 100 | > 100 µM (inactive) | > 100 µM (inactive) | > 100 µM (inactive) | 84.9 µM (inactive) | 83.8 µM (inactive) | > 100 µM (inactive) | > 100 µM (inactive)
O=c1ccc2[n+]([O-])c3ccc(O)cc3oc-2c1 [RESAZURIN] | 12.5 µM (inactive) | 39.2 µM (inactive) | 28.8 µM (inactive) | > 75.2 µM (inactive) | 19.6 µM (inactive) | 15 µM (inactive) | 6.01 µM (inactive) | 37 µM (inactive) | 66.5 µM (inactive) | 9.68 µM (inactive) | 11.2 µM (inactive) | – | 5.15 | 21.1 µM (inactive) | 10.7 µM (inactive) | 15.9 µM (inactive) | 7.53 µM (inactive) | 4.95 µM (inactive) | 1.84 µM (inactive) | 13.4 µM (inactive)
CS(=O)(=O)N(CCC#N)c1ccc(/C=C2\N=C(c3ccccc3Cl)OC2=O)cc1 | > 100 µM (inactive) | > 100 µM (inactive) | > 100 µM (inactive) | – | > 100 µM (inactive) | > 100 µM (inactive) | > 100 µM (inactive) | > 100 µM (inactive) | > 100 µM (inactive) | > 100 µM (inactive) | > 100 µM (inactive) | > 100 µM (inactive) | > 100 | > 100 µM (inactive) | – | – | – | – | – | –
Clc1ccccc1-c1nc(-c2ccncc2)no1 [PIFEXOLE] | > 100 µM (inactive) | 37.6 µM (inactive) | 16.1 µM (inactive) | > 100 µM (inactive) | 66.1 µM (inactive) | 90.6 µM (inactive) | 44.2 µM (inactive) | 29.3 µM (inactive) | > 100 µM (inactive) | 65.8 µM (inactive) | 37.8 µM (inactive) | – | 44.7 | 98.9 µM (inactive) | 42.3 µM (inactive) | 87.9 µM (inactive) | 36.6 µM (inactive) | 30 µM (inactive) | 49.3 µM (inactive) | 30.9 µM (inactive)
CC(C)C(Nc1ncnc2nc[nH]c12)C(=O)O (configuration not stated) | > 100 µM (inactive) | > 100 µM (inactive) | > 100 µM (inactive) | > 100 µM (inactive) | > 100 µM (inactive) | > 100 µM (inactive) | > 100 µM (inactive) | > 100 µM (inactive) | > 100 µM (inactive) | > 100 µM (inactive) | > 100 µM (inactive) | – | > 100 | > 100 µM (inactive) | > 100 µM (inactive) | > 100 µM (inactive) | > 100 µM (inactive) | > 100 µM (inactive) | > 100 µM (inactive) | > 100 µM (inactive)
COc1ccc(/C=N/N=C(\N)NO)cc1F | 13.7 µM (inactive) | – | 8.13 µM (inactive) | 22.2 µM (inactive) | 12.9 µM (inactive) | 25.9 µM (inactive) | 28.4 µM (inactive) | 38.2 µM (inactive) | 24.5 µM (inactive) | 25 µM (inactive) | 46.6 µM (inactive) | 25.3 µM (inactive) | 18.6 | 5.42 µM (inactive) | – | – | – | – | – | –
COC(=O)c1ccccc1/C=C1/Cc2cccc(C)c2C1=O | 36.2 µM (inactive) | > 100 µM (inactive) | > 100 µM (inactive) | 31.8 µM (inactive) | > 100 µM (inactive) | > 100 µM (inactive) | > 100 µM (inactive) | 41.2 µM (inactive) | > 100 µM (inactive) | 31 µM (inactive) | > 100 µM (inactive) | – | > 100 | > 100 µM (inactive) | 93.8 µM (inactive) | > 100 µM (inactive) | 39.7 µM (inactive) | > 100 µM (inactive) | > 100 µM (inactive) | > 100 µM (inactive)
COc1ccc(C2=Nn3c(nc4sc5c(c4c3=O)CCCC5)SC2)cc1 | > 100 µM (inactive) | > 100 µM (inactive) | > 100 µM (inactive) | > 100 µM (inactive) | > 100 µM (inactive) | > 100 µM (inactive) | > 100 µM (inactive) | > 100 µM (inactive) | > 100 µM (inactive) | > 100 µM (inactive) | > 100 µM (inactive) | – | > 100 | > 100 µM (inactive) | > 100 µM (inactive) | > 100 µM (inactive) | 70.6 µM (inactive) | > 100 µM (inactive) | > 100 µM (inactive) | > 100 µM (inactive)
